Reference: US20230023847A1, “COMPOSITION FOR PREVENTING HAIR LOSS AND PROMOTING HAIR REGROWTH” (LG HOUSEHOLD & HEALTH CARE LTD., priority 2020, published 2023)

Key:
Dkk-1 = experiment: Inhibition of expression of hair follicle catagen factor (Dkk-1 ELISA); format: cell-based; conditions: 24 hours, human dermal papilla cells (hDPCs)
Method: The inhibition of the expression of the hair follicle catagen marker Dkk-1 was investigated using human dermal papilla cells (hDPCs). The human dermal papilla cells were purchased from PromoCell. The hDPCs were subcultured in an hDPC culture medium (follicle dermal papilla cell growth medium; PromoCell, Heidelberg, Germany) containing a medium additive (Supplement Mix; PromoCell, Heidelberg, Germany), 100 units/mL penicillin and […] streptomycin under the condition of 37° C. and 5% CO2. One million subcultured hDPCs were seeded onto a 100-mm cell culture dish and then cultured in an incubator at 37° C. 48 hours later, after treating with each of gypsogenin 3-O-β-D-glucuronopyranoside, deapioplatycodin D, congmunoside X and chikusetsusaponin IVa at 2 ppm or 20 ppm for 24 hours, the cell culture was subjected to Dkk-1 ELISA assay (R&D Systems, USA). The protein amount of each test group was identified by BCA assay and corrected with the result of Dkk-1 ELISA.

androgen receptor = experiment: Androgenic activity: transcriptional activation (MMTV-Luc luciferase reporter) assay with 1 nM DHT; format: cell-based, human; conditions: 24 hours
Method: (§1) The stable cell line was maintained by subculturing using RPMI1640 and 10% fetal bovine serum (GIBCO BRL, Gaithersburg, Md., USA). For transcriptional activation assay, the cells were seeded in a 96-well plate, with 25,000 cells per well, while replacing the medium with phenol red-free RPMI1640 containing 5% charcoal-stripped fetal bovine serum. […] The cell culture was treated and incubated with CCK-8 at 1:10 for 2 hours. 2 hour later, the absorbance of each well was measured at 450 nm. All the experiments were 3 times and the absorbance was averaged. […] The experimental result is shown in Table 1, Table 2 and FIGS. 1-4.

[1] = test system: 22Rv1 human prostate cancer cells; experiment: CCK-8 assay conducted in parallel to investigate cytotoxicity (cell viability)
Method: as §1

## CC1(C)CC[C@]2(C(=O)O[C@@H]3O[C@H](CO)[C@@H](O)[C@H](O)[C@H]3O)CC[C@]3(C)C(=CC[C@@H]4[C@@]5(C)CC[C@H](O[C@@H]6O[C@H](C(=O)O)[C@@H](O)[C@H](O)[C@H]6O)C(C)(C)[C@@H]5CC[C@]43C)[C@@H]2C1 [Chikusetsusaponin IVa, chikusetsusaponin IVa]
Dkk-1; 2 ppm
  Relative expression level of Dkk-1 (% of untreated group): 85.2 % of untreated group
Dkk-1; 20 ppm
  Relative expression level of Dkk-1 (% of untreated group): 70.9 % of untreated group
Androgen receptor; 0.2 ppm together with 1 nM DHT
  Androgenic activity (% of 1 nM DHT): 84.7 % of 1 nM DHT
Androgen receptor; 2 ppm together with 1 nM DHT
  Androgenic activity (% of 1 nM DHT): 79 % of 1 nM DHT
Androgen receptor; 20 ppm together with 1 nM DHT
  Androgenic activity (% of 1 nM DHT): 77.5 % of 1 nM DHT

## CC1(C)CC[C@]2(C(=O)O[C@@H]3O[C@H](CO)[C@@H](O)[C@H](O)[C@H]3O)CC[C@]3(C)C(=CC[C@@H]4[C@@]5(C)CC[C@H](O[C@@H]6O[C@H](CO)[C@@H](O)[C@H](O[C@@H]7O[C@H](CO)[C@@H](O)[C@H](O[C@@H]8O[C@H](CO)[C@@H](O)[C@H](O)[C@H]8O)[C@H]7O)[C@H]6O[C@@H]6O[C@H](CO)[C@@H](O)[C@H](O)[C@H]6O)C(C)(C)[C@@H]5CC[C@]43C)[C@@H]2C1 [Congmunoside X, congmunoside X]
Dkk-1; 2 ppm
  Relative expression level of Dkk-1 (% of untreated group): 90.8 % of untreated group
Dkk-1; 20 ppm
  Relative expression level of Dkk-1 (% of untreated group): 81.2 % of untreated group
Androgen receptor; 2 ppm together with 1 nM DHT
  Androgenic activity (% of 1 nM DHT): 104.4 % of 1 nM DHT
Androgen receptor; 20 ppm together with 1 nM DHT
  Androgenic activity (% of 1 nM DHT): 85.9 % of 1 nM DHT
Androgen receptor; 200 ppm together with 1 nM DHT
  Androgenic activity (% of 1 nM DHT): 14.9 % of 1 nM DHT

## C[C@]12CCC(=O)C[C@@H]1CC[C@@H]1[C@@H]2CC[C@]2(C)[C@@H](O)CC[C@@H]12 [DHT, dihydrotestosterone, reference compound]
[1]; DHT 1 nM alone, CCK-8, 22Rv1 stable cell line
  Cell viability (% of 1 nM DHT): 100.0 % of 1 nM DHT
Androgen receptor; DHT 1 nM alone, 22Rv1 MMTV-Luc stable cell line
  Androgenic activity (% of 1 nM DHT): 100.0 % of 1 nM DHT

## C[C@@H]1O[C@@H](O[C@H]2[C@H](OC(=O)[C@]34CCC(C)(C)C[C@H]3C3=CC[C@@H]5[C@@]6(C)C[C@H](O)[C@H](O[C@@H]7O[C@H](CO)[C@@H](O)[C@H](O)[C@H]7O)C(CO)(CO)[C@@H]6CC[C@@]5(C)[C@]3(C)C[C@H]4O)OC[C@H](O)[C@@H]2O)[C@H](O)[C@H](O)[C@H]1O[C@@H]1OC[C@@H](O)[C@H](O)[C@H]1O [Deapioplatycodin D, deapioplatycodin D]
[1]; 0.2 ppm together with 1 nM DHT, CCK-8
  Cell viability (% of 1 nM DHT): 102.2 % of 1 nM DHT
[1]; 2 ppm together with 1 nM DHT, CCK-8
  Cell viability (% of 1 nM DHT): 99.4 % of 1 nM DHT
[1]; 20 ppm together with 1 nM DHT, CCK-8
  Cell viability (% of 1 nM DHT): 81.6 % of 1 nM DHT
Dkk-1; 2 ppm
  Relative expression level of Dkk-1 (% of untreated group): 86.4 % of untreated group
Dkk-1; 20 ppm
  Relative expression level of Dkk-1 (% of untreated group): 76.7 % of untreated group
Androgen receptor; 0.2 ppm together with 1 nM DHT
  Androgenic activity (% of 1 nM DHT): 89.1 % of 1 nM DHT
Androgen receptor; 2 ppm together with 1 nM DHT
  Androgenic activity (% of 1 nM DHT): 72.2 % of 1 nM DHT
Androgen receptor; 20 ppm together with 1 nM DHT
  Androgenic activity (% of 1 nM DHT): 34.9 % of 1 nM DHT

## CC1(C)CC[C@]2(C(=O)O)CC[C@]3(C)C(=CC[C@@H]4[C@@]5(C)CC[C@H](O[C@@H]6O[C@H](C(=O)O)[C@@H](O)[C@H](O)[C@H]6O)[C@@](C)(C=O)[C@@H]5CC[C@]43C)[C@@H]2C1 [Gypsogenin 3-O-β-D-glucuronopyranoside, gypsogenin 3-O-β-D-glucuronopyranoside]
Dkk-1; 2 ppm
  Relative expression level of Dkk-1 (% of untreated group): 96.5 % of untreated group
Dkk-1; 20 ppm
  Relative expression level of Dkk-1 (% of untreated group): 77.5 % of untreated group
Androgen receptor; 0.2 ppm together with 1 nM DHT
  Androgenic activity (% of 1 nM DHT): 98.1 % of 1 nM DHT
Androgen receptor; 2 ppm together with 1 nM DHT
  Androgenic activity (% of 1 nM DHT): 79.1 % of 1 nM DHT
Androgen receptor; 20 ppm together with 1 nM DHT
  Androgenic activity (% of 1 nM DHT): −9.8 % of 1 nM DHT
